Assay results from ChEMBL document CHEMBL1131690, “Synthesis and evaluation of anthranilic acid-based transthyretin amyloid fibril inhibitors” (Bioorg Med Chem Lett, 1999).

Legend:
[1] = Concentration completly inhibiting Wild type TTR amyloid fibril formation at pH 4.4; format: functional
[2] = Binding parameter for complete inhibition of Wild type Transthyretin amyloid fibril formation at pH 4.4 with negative cooperativity by the compound at a concentration of (10.8)

O=C(O)c1cccc(Nc2ccccc2C(=O)O)c1
Concentration [1]: 7.6 µM

O=C(O)c1ccccc1Nc1cccc(C(F)(F)F)c1
KD1 [2]: 30.1 nM
KD2 [2]: 255 nM
